From patent US20030096958A1, “Human NHE2” (Pfizer Inc., priority 2001, published 2003)
Where two headings read alike, the source gives them in different places.

Tests used:
human NHE2-LF = molecular target: T1, human NHE2-LF (Homo sapiens, UniProt Q9UBY0); assay: FLIPR assay of Na+/H+ exchange (BCECF fluorescence recovery) in human NHE2-LF transfected PS120 cells; assay type: cell-based; conditions: read-out: IC50 Values Determined By FLIPR, NHE2-LF
T1 construct: expressed in transfected cells
T1 sequence (Q9UBY0 1-812): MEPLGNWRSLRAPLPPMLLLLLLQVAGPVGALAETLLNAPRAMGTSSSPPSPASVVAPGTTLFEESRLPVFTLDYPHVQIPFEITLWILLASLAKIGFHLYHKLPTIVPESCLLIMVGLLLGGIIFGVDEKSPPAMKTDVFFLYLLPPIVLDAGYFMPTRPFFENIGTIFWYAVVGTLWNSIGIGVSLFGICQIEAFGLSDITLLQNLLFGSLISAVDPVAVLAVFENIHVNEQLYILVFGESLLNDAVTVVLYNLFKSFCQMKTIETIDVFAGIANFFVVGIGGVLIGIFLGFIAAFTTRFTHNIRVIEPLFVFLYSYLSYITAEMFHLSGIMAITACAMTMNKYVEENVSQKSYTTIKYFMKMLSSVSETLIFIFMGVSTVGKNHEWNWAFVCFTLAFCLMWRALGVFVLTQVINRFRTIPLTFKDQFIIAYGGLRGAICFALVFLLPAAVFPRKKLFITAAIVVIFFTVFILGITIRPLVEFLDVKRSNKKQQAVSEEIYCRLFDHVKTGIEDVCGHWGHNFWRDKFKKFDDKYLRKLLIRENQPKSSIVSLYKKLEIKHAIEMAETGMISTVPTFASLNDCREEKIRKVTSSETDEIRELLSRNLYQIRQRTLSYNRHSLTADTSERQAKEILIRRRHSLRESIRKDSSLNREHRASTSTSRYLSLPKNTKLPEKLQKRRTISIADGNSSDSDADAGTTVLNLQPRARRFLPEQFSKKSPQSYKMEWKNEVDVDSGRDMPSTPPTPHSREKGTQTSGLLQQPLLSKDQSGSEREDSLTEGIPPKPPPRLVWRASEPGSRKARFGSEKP
Procedure: (§1) Human NHE2-LF and human NHE2-SF transfected PS120 cells were grown to confluence in collagen coated Fluorescent Laser Imaging Plate Reader (FLIPR) plates. To remove growth medium, the cells were washed with a 10 mM Hepes buffer, pH 7.4. A pH sensitive fluorescent dye, BCECF, AM (5 μM) (Molecular Probes, Eugene, Oreg.), was added to each well and the plates were incubated in a 37° C. humidified 5% CO2 incubator for approximately 20 minutes.
(§2) The cells were then washed with 30 mM NH4Cl buffer, pH 7.5, to remove excess dye. Plates were incubated with this buffer for approximately 45 minutes in a 37° C. humidified incubator.
5-(N,N-Hexamethylene)-amiloride ((hexa)-amiloride), amiloride, or a vehicle, was then added to each well and allowed to incubate for a minimum of 5 minutes prior to the initiation of intracellular acidification. The NH4Cl buffer was removed and the plates were placed on the FLIPR to establish a baseline fluorescence. […] (This process initiates intracellular acidification and the quenching of BCECF-related fluorescence. The resultant activation of the Na^+/H^+ exchanger and the decrease in intracellular H^+ ions produces in gradual increase in dye fluorescence towards baseline.) Changes in fluorescence were measured by the FLIPR over a period of 7 min. […]

human NHE2-SF = molecular target: T2, human NHE2-SF (Homo sapiens, UniProt Q9UBY0); assay: FLIPR assay of Na+/H+ exchange (BCECF fluorescence recovery) in human NHE2-SF transfected PS120 cells; assay type: cell-based
T2 construct: NotI/BgIII fragments including each of the entire coding regions were subcloned into pcDNA3.1(−) vectors; expressed in transfected cells; two lines tested
T2 sequence (Q9UBY0 116-812): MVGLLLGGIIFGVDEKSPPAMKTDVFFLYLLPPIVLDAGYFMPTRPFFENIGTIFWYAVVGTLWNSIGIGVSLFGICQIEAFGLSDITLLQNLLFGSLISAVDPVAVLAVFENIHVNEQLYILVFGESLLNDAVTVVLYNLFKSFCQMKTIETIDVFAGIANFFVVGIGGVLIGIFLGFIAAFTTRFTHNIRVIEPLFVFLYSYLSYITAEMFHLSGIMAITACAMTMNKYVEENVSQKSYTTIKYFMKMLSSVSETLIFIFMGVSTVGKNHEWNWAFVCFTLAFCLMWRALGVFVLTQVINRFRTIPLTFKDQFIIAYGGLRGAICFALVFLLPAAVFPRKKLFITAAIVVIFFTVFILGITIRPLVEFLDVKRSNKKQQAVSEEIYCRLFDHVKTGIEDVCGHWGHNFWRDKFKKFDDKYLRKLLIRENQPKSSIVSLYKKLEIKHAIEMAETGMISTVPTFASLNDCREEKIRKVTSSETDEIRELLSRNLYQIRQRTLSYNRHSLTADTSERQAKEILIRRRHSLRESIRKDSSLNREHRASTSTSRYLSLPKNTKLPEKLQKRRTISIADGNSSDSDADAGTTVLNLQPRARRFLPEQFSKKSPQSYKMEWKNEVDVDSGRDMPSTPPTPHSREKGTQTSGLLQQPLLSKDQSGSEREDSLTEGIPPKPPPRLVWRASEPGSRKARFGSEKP
Procedure: as §1, §2
5-(N,N-Hexamethylene)-amiloride ((hexa)-amiloride), amiloride, or a vehicle, was then added to each well and allowed to incubate for a minimum of 5 minutes prior to the initiation of intracellular acidification. The NH4Cl buffer was removed and the plates were placed on the FLIPR to establish a baseline fluorescence. A 10 mM hepes buffer, pH 7.4, containing the appropriate concentration of test compound or vehicle was added to each well of the plate. (This process initiates intracellular acidification and the quenching of BCECF-related fluorescence. The resultant activation of the Na^+/H^+ exchanger and the decrease in intracellular H^+ ions produces in gradual increase in dye fluorescence towards baseline.) Changes in fluorescence were measured by the FLIPR over a period of 7 min. Activity of the exchanger was calculated based on the percentage of fluorescence recovery as compared to control in the presence of varying concentrations of compounds (Table 2).

[1] = line #2, read-out: IC50 Values Determined By FLIPR, NHE2-SF line #2
[2] = line #, read-out: IC50 Values Determined By FLIPR, NHE2-SF line #

Structure (SMILES)	IC50 (human NHE2-LF) [nM]	IC50 (human NHE2-SF; [1]) [nM]	IC50 (human NHE2-SF; [2]) [nM]
NC(N)=NC(=O)c1nc(Cl)c(N2CCCCCC2)nc1N [(hexa)-Amiloride, 5-(N,N-Hexamethylene)-amiloride]	7480	45	23
N=C(N)NC(=O)c1nc(Cl)c(N)nc1N [Amiloride, amiloride]	27000	1370	1700
